According to the supplement of paper PMC8741786:
Values after ≈ are worked out from the molar mass of the structure shown.

System: Neisseria subflava/flavescens/perflava
Assay: minimum inhibitory concentration (ETEST)
Details: population: general population, antibiotic use in previous 6 months: No
Experimental: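 Oropharyngeal Neisseria isolates from MSM and employees in Belgium were identified to species by MALDI-TOF MS. MICs of azithromycin, ceftriaxone and ciprofloxacin were determined by ETEST on GC agar after 24 h at 36.5 °C and 5-7% CO2, in mg/L. Values beyond the strip range are reported as >256 (azithromycin) or <0.016 (ceftriaxone); isolates that did not grow are NA.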

CO/N=C(\C(=O)N[C@@H]1C(=O)N2C(C(=O)O)=C(CSc3nc(=O)c(O)nn3C)CS[C@H]12)c1csc(N)n1 [ceftriaxone]
Details | minimum inhibitory concentration [µg/mL]
isolate id (sample isolate): Co000773_1 | 0.064 (≈ 0.115 µM)
isolate id (sample isolate): Co000773_2 | 0.064 (≈ 0.115 µM)
isolate id (sample isolate): Co000774_2 | 0.016 (≈ 0.0289 µM)
isolate id (sample isolate): Co000775_1 | 0.032 (≈ 0.0577 µM)
isolate id (sample isolate): Co000775_2 | 0.047 (≈ 0.0847 µM)
isolate id (sample isolate): Co000775_3 | 0.094 (≈ 0.169 µM)
isolate id (sample isolate): Co000776_2 | 0.125 (≈ 0.225 µM)
isolate id (sample isolate): Co000776_3 | 0.125 (≈ 0.225 µM)
isolate id (sample isolate): Co000777_1 | 0.064 (≈ 0.115 µM)
isolate id (sample isolate): Co000777_2 | 0.047 (≈ 0.0847 µM)
isolate id (sample isolate): Co000777_4 | 0.047 (≈ 0.0847 µM)
isolate id (sample isolate): Co000778_1 | 0.094 (≈ 0.169 µM)
isolate id (sample isolate): Co000778_2 | 0.047 (≈ 0.0847 µM)
isolate id (sample isolate): Co000778_3 | 0.094 (≈ 0.169 µM)
isolate id (sample isolate): Co000780_4 | 0.125 (≈ 0.225 µM)
isolate id (sample isolate): Co000781_1 | 0.094 (≈ 0.169 µM)
isolate id (sample isolate): Co000781_3 | 0.064 (≈ 0.115 µM)
isolate id (sample isolate): Co000781_4 | 0.094 (≈ 0.169 µM)
isolate id (sample isolate): Co000782_2 | 0.047 (≈ 0.0847 µM)
isolate id (sample isolate): Co000782_3 | 0.25 (≈ 0.451 µM)
isolate id (sample isolate): Co000782_4 | 0.047 (≈ 0.0847 µM)
isolate id (sample isolate): Co000783_1 | 0.125 (≈ 0.225 µM)
isolate id (sample isolate): Co000783_2 | 0.032 (≈ 0.0577 µM)
isolate id (sample isolate): Co000783_5 | 0.032 (≈ 0.0577 µM)
isolate id (sample isolate): Co000784_1 | 0.023 (≈ 0.0415 µM)
isolate id (sample isolate): Co000784_2 | 0.047 (≈ 0.0847 µM)
isolate id (sample isolate): Co000784_5 | 0.032 (≈ 0.0577 µM)
isolate id (sample isolate): Co000785_1 | 0.047 (≈ 0.0847 µM)
isolate id (sample isolate): Co000785_2 | 0.047 (≈ 0.0847 µM)
isolate id (sample isolate): Co000785_3 | 0.064 (≈ 0.115 µM)
isolate id (sample isolate): Co000785_4 | 0.064 (≈ 0.115 µM)
isolate id (sample isolate): Co000786_1 | 0.032 (≈ 0.0577 µM)
isolate id (sample isolate): Co000786_2 | 0.064 (≈ 0.115 µM)
isolate id (sample isolate): Co000787_1 | 0.032 (≈ 0.0577 µM)
isolate id (sample isolate): Co000787_2 | 0.023 (≈ 0.0415 µM)
isolate id (sample isolate): Co000787_4 | 0.016 (≈ 0.0289 µM)
isolate id (sample isolate): Co000788_2 | 0.047 (≈ 0.0847 µM)
isolate id (sample isolate): Co000788_3 | 0.047 (≈ 0.0847 µM)
